Assay results from patent US20150044316A1, “METHOD FOR PREPARING A PURIFIED EXTRACT OF LONICERA JAPONICA THUNBERG AND THE COMPOSITION COMPRISING THE SAME FOR PREVENTING AND TREATING SEPSIS AND SEPTIC SHOCK” (Huons Co., Ltd., priority 2012, published 2015).

Test system: severe sepsis CLP model
Conditions: severe sepsis CLP mice
Experimental: To assess the treating activity of the combination of the purified extract prepared in the Examples with antibiotics on severe sepsis, following experiment was performed by using severe sepsis CLP model according to the modified procedure disclosed in the procedure (Daniel Rittirsch, et al. Immuodesign of Experimental sepsis by cecal ligation and puncture. Nature Protocols, Vol. 4(1), pp 31-36, 2009).
Anesthetic(ketamine hydrochloride, 100 mg/kg, Yuhan Pharm. Co.) was intraperitoneally injected to the mice (ICR female, 23-25 g, 8 weeks-old, www.dhbiolink.com) and sepsis was induced to the mice using by CLP (Cecal ligation and puncture). Cavus abdominis medians was dissected and cecum was exposed to ligate the distal ileocecal valve by silk suture (medical suture thread No. 1 & No. 2, www. lead-care.com), Two-holes were made at the cecum by a thread so as to exude the certain amount of fecal material. The cecum was put into the abdominal cavity together with fecal material and physiological saline solution was subcutaneously injected thereto to induce sepsis.
In particular, the suturing position of the distal ileocecal valve was changed and the number of puncture was more than 2 to increase the amount of fecal material in this experiment in order to inducing severe sepsis CLP model.

[1] = imipenem 25 mg/kg, HS-23 40 mg/kg

## C[C@@H](O)[C@H]1C(=O)N2C(C(=O)O)=C(SCCN=CN)C[C@H]12 [Imipenem, imipenem]
Imipenem 25 mg/kg every 12 hours for 4 days, HS-23 40 mg/kg i.v.
  survival rate at 1st day after the CLP: 83%
[1]
  final survival rate at 10th days: 33%
  survival rate at 2nd day after the CLP: 58%
  survival rate at 3rd day after the CLP: 50%
  survival rate at 4th day to 10th day after the CLP: 42%
